Assay type in all cases: cell-based
Experiment [1] concerns Bifidobacterium longum subsp. infantis. Briefly: Minimum Inhibitory Concentration (MIC) assay. The following applies: anaerobic, 37° C., 18 h. Here is the method: (§1) The bioactivity of macrolide compounds against 4 strains of common gut bacteria (Escherichia coli, Streptococcus salivarius subsp. salivarius, Lactobacillus casei and Bifidobacterium longum subsp. infantis) and common mammalian skin isolate Micrococcus luteus, was assessed using the Minimum Inhibitory Concentration (MIC) assay. Bacterial strains were purchased from DSMZ (Brunswick, Germany) except M. luteus which was obtained from NCIMB, and stored in 20% glycerol at −80° C. Stock solutions (100% DMSO) of positive controls (azithromycin and erythromycin), and of test compounds 1 and 2 were diluted in broth to working stock concentrations of 256 μg/ml (final assay testing concentration range 128 μg/ml to 0.00391 μg/ml). Stock solutions of all other compounds were diluted in broth to working stock concentrations of 128 μg/ml (final assay testing concentration range 64 μg/ml to 0.00195 μg/ml). Bacterial strains were cultivated in appropriate broth in an anaerobic chamber at 37° C., except for M. luteus which was incubated aerobically at 37° C. 18 h cultures were diluted in broth to an OD595 of 0.1 and then further diluted 1:10. In 96-well plates, in duplicate, 200 μl working stock of test compound was transferred to well 1 and serially diluted (1:2) in broth. 100 μl bacterial suspension was aliquoted into each well and mixed thoroughly. Appropriate sterility controls were included and plates were incubated in an anaerobic chamber, or aerobically (M. luteus) at 37° C. for 18 h. The MIC was determined to be the concentration of test compound in the first well with no visible growth.

The test system of experiment [2] is Escherichia coli. Briefly: Minimum Inhibitory Concentration (MIC) assay. As to conditions: anaerobic, 37° C., 18 h. Here is the method:
as §1

The subject of experiment [3] is Lactobacillus casei. Put plainly: Minimum Inhibitory Concentration (MIC) assay. The following applies: Lacticaseibacillus casei; anaerobic, 37° C., 18 h. Here is the method: as §1
Experiment [4] has as its system Micrococcus luteus. Briefly: Minimum Inhibitory Concentration (MIC) assay. As to conditions: aerobic, 37° C., 18 h. Here is the method:
as §1

Experiment [5] relates to Streptococcus salivarius subsp. salivarius. Briefly: Minimum Inhibitory Concentration (MIC) assay. As to conditions: anaerobic, 37° C., 18 h. Here is the method:
as §1

Experiment [6] has as its system E. coli, S. salivarius, L. casei, B. longum or M. luteus. Put plainly: Direct antibacterial activity, summary over all strains tested. The following applies: summary in words of Table 1. Here is the method: as §1
Experiment [7] concerns the target T1, human TLR2 (Homo sapiens, UniProt O60603).
T1 construct: host or cells: recombinant HEK-293-TLR cell lines
Put plainly: TLR2 reporter assay (HEK-293-TLR, SEAP). As to conditions: for TLR2 stimulation: at concentrations up to 20 uM. On the procedure: Samples and controls were tested in duplicate on recombinant HEK-293-TLR cell lines using a cell reporter assay at Invivogen using their standard assay conditions. These cell lines functionally over-express human TLR2 protein as well as a reporter gene which is a secreted alkaline phosphatase (SEAP). The production of this reporter gene is driven by an NFkB inducible promoter. The TLR reporter cell lines activation results are given as optical density values (OD).
20 μl of each test article were used to stimulate the hTLR2 reporter cell lines in a 200 μl of final reaction volume. Samples were tested in duplicate, with at least two concentrations tested—20 uM and 10 uM.
Compounds were tested using a TLR2 reporter assay (see general methods) that measured for stimulation of the TLR2 receptor. Stimulatory effect was measured as an increase in optical density (OD) due to release of secreted alkaline phosphatase (SEAP) and is shown in table 4: […]
In general terms: Reporter assays use an easily measured gene product as a stand-in for the process of interest.

Molecules are shown by their SMILES. Values after ≈ are worked out from the molar mass of the structure shown.

Experimental findings from patent publication US11059844B2, “Immune stimulating macrolides” (ISR IMMUNE SYSTEM REGULATION HOLDING AB (PUBL), priority 2017, dated 2021) are described below.

The term MIC denotes the lowest concentration that inhibits growth of the organism. The low end stands for inhibition by little substance, the high end for a need for much substance.

T1 sequence (O60603 21-784): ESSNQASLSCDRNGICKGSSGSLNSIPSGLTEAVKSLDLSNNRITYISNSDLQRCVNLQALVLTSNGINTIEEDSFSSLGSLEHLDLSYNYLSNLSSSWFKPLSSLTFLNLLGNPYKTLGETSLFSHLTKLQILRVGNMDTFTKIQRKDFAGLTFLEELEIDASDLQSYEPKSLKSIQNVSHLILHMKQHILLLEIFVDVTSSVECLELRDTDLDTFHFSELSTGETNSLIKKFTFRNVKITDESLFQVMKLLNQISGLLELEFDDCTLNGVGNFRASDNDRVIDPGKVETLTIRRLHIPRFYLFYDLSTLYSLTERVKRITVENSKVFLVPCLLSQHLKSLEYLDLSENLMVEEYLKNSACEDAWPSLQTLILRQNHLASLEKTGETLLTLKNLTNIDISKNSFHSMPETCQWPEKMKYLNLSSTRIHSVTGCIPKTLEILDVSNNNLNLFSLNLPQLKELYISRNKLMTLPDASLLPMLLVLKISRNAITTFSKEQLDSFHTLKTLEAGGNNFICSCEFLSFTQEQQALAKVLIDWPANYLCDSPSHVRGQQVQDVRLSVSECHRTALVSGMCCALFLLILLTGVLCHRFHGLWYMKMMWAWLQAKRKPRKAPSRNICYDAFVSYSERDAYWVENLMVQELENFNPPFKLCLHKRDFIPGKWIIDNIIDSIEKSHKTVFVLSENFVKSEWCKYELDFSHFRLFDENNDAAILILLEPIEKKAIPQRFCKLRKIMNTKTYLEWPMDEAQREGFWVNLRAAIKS

Take `CC[C@H]1OC(=O)[C@H](C)[C@@H](O[C@H]2C[C@@](C)(OC)[C@@H](O)[C@H](C)O2)[C@H](C)[C@@H](O[C@@H]2O[C@H](C)C[C@H](N(C)C)[C@H]2O)[C@](C)(O)C[C@@H](C)CN(C)[C@H](C)[C@@H](O)[C@]1(C)O` [Azithromycin, reference compound]: the MIC was over 64 µg/mL in experiment [1]; under 8 µg/mL in experiment [2]; under 1 µg/mL in experiment [3]; 0.125 µg/mL (≈ 0.167 µM) in experiment [4]; under 0.5 µg/mL in experiment [5]. The “antibacterial activity against the bacterial strains tested” value (“antibacterial activity” below) in experiment [6] was “potent activity against a number of the strains”. In addition, the “OD after addition of 5 μM test article” value in experiment [7] is given as 0.029 OD. Further, the “OD after addition of 10 μM test article” value in experiment [7] came out at 0.045 OD. Besides, the “OD after addition of 20 μM test article” value in experiment [7] turned out to be 0.031 OD. Further, the TLR2 stimulation result in experiment [7] was “little or no stimulation”.

As to `CC[C@H]1OC(=O)[C@H](C)[C@@H](O[C@H]2CC(N(C)C)[C@H](O)C(C)O2)[C@H](C)[C@@H](O)[C@](C)(O)C[C@@H](C)C(=O)[C@H](C)[C@@H](O)[C@H]1C` (stereo partly drawn) [Compound 3], in experiment [6], the “antibacterial activity” value is “no antibacterial activity”. In experiment [7], the “OD after addition of 5 μM test article” value is −0.043 OD, the “OD after addition of 10 μM test article” value was −0.015 OD, the “OD after addition of 20 μM test article” value is −0.026 OD and the TLR2 stimulation entry is recorded as “little or no stimulation”.

For `CC[C@H]1OC(=O)[C@H](C)[C@@H](O[C@H]2CC(N(C)C)[C@H](O)C(C)O2)[C@H](C)[C@@H](O)[C@](C)(O)C[C@@H](C)CN(C)[C@H](C)[C@@H](O)[C@H]1C` (stereo partly drawn) [Compound 4], the MIC in experiment [1], in experiment [2], in experiment [3] and in experiment [5] was over 64 µg/mL in each case. Moreover, the “antibacterial activity” value in experiment [6] is on record as “no antibacterial activity”.

On to `CC1O[C@@H](O[C@H]2[C@H](C)[C@@H](O)[C@](C)(O)C[C@@H](C)C(=O)[C@H](C)[C@@H](O)[C@@H](C)[C@@H](C3CCC3)OC(=O)[C@@H]2C)CC(N(C)C)[C@@H]1O` (stereo partly drawn) [Compound 5], for which the MIC in experiment [1], in experiment [2], in experiment [3] and in experiment [5] was over 64 µg/mL in each case. In addition, the “antibacterial activity” value in experiment [6] is listed as “no antibacterial activity”.

Regarding `CC[C@H]1OC(=O)[C@H](C)[C@@H](O[C@H]2CC(NC)[C@H](O)C(C)O2)[C@H](C)[C@@H](O)[C@](C)(O)C[C@@H](C)C(=O)[C@H](C)[C@@H](O)[C@H]1C` (stereo partly drawn) [Compound 6], the MIC in experiment [1], in experiment [2], in experiment [3] and in experiment [5] was over 64 µg/mL throughout. For the same compound, the “antibacterial activity” value in experiment [6] is listed as “no antibacterial activity”.

As to `CC1O[C@@H](O[C@H]2[C@H](C)[C@@H](O)[C@](C)(O)C[C@@H](C)C(=O)[C@H](C)[C@@H](O)[C@@H](C)[C@@H](C)OC(=O)[C@@H]2C)CC(N(C)C)[C@@H]1O` (stereo partly drawn) [Compound 8], the MIC in experiment [1], in experiment [2], in experiment [3] and in experiment [5] was over 64 µg/mL each time. For the same compound, the “antibacterial activity” value in experiment [6] is recorded as “no antibacterial activity”.

As for `CC(O)[C@H]1OC(=O)[C@H](C)[C@@H](O[C@H]2C[C@@H](N(C)C)[C@H](O)[C@@H](C)O2)[C@H](C)[C@@H](O)[C@](C)(O)C[C@@H](C)C(=O)[C@H](C)[C@@H](O)[C@H]1C` (stereo partly drawn) [Compound 9, 14-hydroxy angolosamine erythronolide B], the MIC in experiment [1], in experiment [2], in experiment [3] and in experiment [5] was over 64 µg/mL each time. For the same compound, in experiment [6], the “antibacterial activity” value was “no antibacterial activity”.

Turning to `CC[C@H]1OC(=O)[C@H](C)[C@@H](O[C@H]2CC(N(C)C)[C@H](O)C(C)O2)[C@H](C)[C@@H](O)[C@](C)(O)C[C@@H](C)N(C)C[C@H](C)[C@@H](O)[C@]1(C)O` (stereo partly drawn) [Compound 17], in experiment [7], the “lowest concentration at which TLR2 was stimulated (concentrations down to)” value is 10 µM, the “OD after addition of 5 μM test article” value came to 0.054 OD, the “OD after addition of 10 μM test article” value was determined as 0.155 OD and the “OD after addition of 20 μM test article” value is recorded as 0.234 OD.

With `CC[C@H]1OC(=O)[C@H](C)[C@@H](O[C@H]2C[C@@](C)(OC)[C@@H](O)[C@H](C)O2)[C@H](C)[C@@H](O[C@@H]2O[C@H](C)C[C@H](N(C)C)[C@H]2O)[C@](C)(O)C[C@@H](C)C(=O)[C@H](C)[C@@H](O)[C@]1(C)O` [Erythromycin, reference compound], the MIC in experiment [1] was over 64 µg/mL; in experiment [2], over 64 µg/mL; in experiment [3] it was under 0.25 µg/mL; in experiment [4], under 0.0625 µg/mL; in experiment [5], under 0.06 µg/mL. The “antibacterial activity” value in experiment [6] is given as “potent activity against a number of the strains”. Further, the “OD after addition of 5 μM test article” value in experiment [7] was determined as 0.035 OD. Moreover, the “OD after addition of 10 μM test article” value in experiment [7] is recorded as 0.065 OD. Moreover, the “OD after addition of 20 μM test article” value in experiment [7] was 0.045 OD. The TLR2 stimulation entry in experiment [7] was “little or no stimulation”.
